Consider five compounds from US20030125235A1, “Treatment of diseases associated with cytokine production with inhibitors of the tec family of protein tyrosine kinases” (priority 2000, published 2003).

Series [1] deals with RAW 264.7 murine macrophages. Nature of the series: LPS-induced TNF-α production in RAW 264.7 murine macrophages (ELISA). It is filed as cell-based. How it is done:
The murine macrophage cell line, Raw 264.7 were maintained in DMEM medium supplemented with 100 units/ml penicillin/streptomycin and 5% heat-inactivated fetal calf serum at 37° C. in a humidified atmosphere containing 5% CO2.
(§1) Supernatants from experiments using either human macrophages, rheumatoid synovial cells or PBMCs were analyzed for TNF-α ot IL-1 by enzyme-linked immunosorbent assay (ELISA). The ELISA for hTNF-α was performed as described by Engelberts et al. (1991) Lymphokine Cytokine Res. 10, 60-76.
This compound was investigated for its effects on TNF-α production. […] Supernatants were then harvested and assayed for TNF-α by ELISA as described in the Methods section.

The subject of another series is Lyn, Syk or MAP kinases. Particulars: Kawakami et al. 1999; cited from earlier work.
The target of another series is Btk (Homo sapiens, UniProt Q06187). Particulars: literature (Kawakami et al. 1999; Mahajan et al. 1999); cited from earlier work.
In another series the test system is TNF production. Particulars: cited from earlier work; for LPS-induced TNF production: Geng et al. 1993.
A further series deals with human monocytes. Particulars: Stefanova et al. 1993; cited from earlier work.
Series [2] deals with RA synovial membrane cultures. Nature of the series: Spontaneous TNF production in rheumatoid arthritis synovial membrane cultures (ELISA). In kind it is cell-based, human. Particulars: overnight culture; FIG. 10. How it is done: Synovium from rheumatoid patients undergoing joint replacement surgery was dissociated by cutting into small pieces, digested with collagenase and DNase (Buchan et al., 1988). The total cell mixture consisting predominantly of T cells and macrophages were cultured at a density of 1×10^6 cells/ml in RPMI containing 100 units/ml penicillin/streptomycin and 5% heat-inactivated fetal calf serum.
as §1
RA synovial cultures were treated with herbimycin at the given concentrations. Following overnight culture the supernatants were harvested and TNF expression measured by ELISA.
On the technique in general: In an ELISA, binding on a coated surface is turned into a signal by an enzyme label.

Chain of Btk (Q06187 whole entry, species assumed): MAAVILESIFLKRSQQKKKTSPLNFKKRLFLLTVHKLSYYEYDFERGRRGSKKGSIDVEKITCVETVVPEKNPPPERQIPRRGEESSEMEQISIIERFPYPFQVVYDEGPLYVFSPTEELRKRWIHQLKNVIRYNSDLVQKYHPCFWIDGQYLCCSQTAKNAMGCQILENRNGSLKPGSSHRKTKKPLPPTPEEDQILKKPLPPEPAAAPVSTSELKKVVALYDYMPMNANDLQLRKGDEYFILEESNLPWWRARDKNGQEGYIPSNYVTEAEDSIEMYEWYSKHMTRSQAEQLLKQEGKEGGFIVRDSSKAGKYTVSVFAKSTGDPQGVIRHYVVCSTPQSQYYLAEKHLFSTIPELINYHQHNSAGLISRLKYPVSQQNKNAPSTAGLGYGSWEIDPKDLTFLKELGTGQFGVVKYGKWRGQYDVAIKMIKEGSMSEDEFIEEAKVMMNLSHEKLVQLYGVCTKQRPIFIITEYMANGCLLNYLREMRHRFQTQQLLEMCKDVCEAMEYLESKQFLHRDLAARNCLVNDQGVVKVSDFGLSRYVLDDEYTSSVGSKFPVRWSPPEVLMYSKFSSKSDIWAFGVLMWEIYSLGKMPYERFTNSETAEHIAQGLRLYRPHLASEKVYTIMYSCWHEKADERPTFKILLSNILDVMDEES

On to `C/C(O)=C(\C#N)C(=O)Nc1cc(Br)ccc1Br` [LFM-A13], for which the “inhibition of LPS-induced TNF-α expression” value in series [1] (200 μM, 1 h pretreatment, LPS 10 ng/ml for 4 h, FIG. 3) is given as 44%. Moreover, the “toxicity limiting the usable concentration” value in series [1] (above 200 μM) is listed as “toxicity”. Also, the “block of LPS-induced TNF-α expression (concentration dependence)” value in series [1] (various concentrations, 1 h pretreatment, LPS 10 ng/ml for 4 h, FIG. 3) is “dose-dependent manner”.
With `CC1=C(O)C(=O)[C@@H]2O[C@@H]2C1=O` [Terreic acid], in the series on Lyn, Syk or MAP kinases, the “effect on activity of Lyn, Syk or MAP kinases” value is given as “without affecting the activity”. In addition, at Btk, the “inhibition of Btk” value is given as “inhibit Btk”.
Turning to `O=c1c(-c2ccc(O)cc2)coc2cc(O)cc(O)c12` [genistein], the “LPS-induced TNF production” value in the series on TNF production was “block”.
As to `CO[C@H]1[C@@H](OC)C[C@H](C)[C@@H](OC)C2=CC(=O)C=C(NC(=O)/C(C)=C/C=C\[C@H](OC)[C@@H](OC(N)=O)/C(C)=C/[C@@H]1C)C2=O` [herbimycin], in the series on human monocytes, the “LPS-induced production of TNF-α and IL-1” value was “completely blocks”. For the same compound, the “LPS-induced TNF production” value in the series with TNF production was “block”. Moreover, the “inhibition of spontaneous TNF production” value in series [2] is reported as “potent inhibitor”.
As for `N#CC(C#N)=Cc1ccc([N+](=O)[O-])c(O)c1` [tyrophostin AG126], in the series with TNF production (Novogradsky et al. 1994), the TNF production entry is “block”.
